Reference: ChEMBL document CHEMBL3407331, “Discovery of AM-7209, a potent and selective 4-amidobenzoic acid inhibitor of the MDM2-p53 interaction” (J Med Chem, 2014)
pIC50: −log10 of the molar value.

Legend:
SJSA-1 = experiment: cells; conditions: Homo sapiens, SJSA-1, 16 h
CYP3A4 [1] = molecular target: T1, CYP3A4 (Homo sapiens, UniProt P08684); experiment: Inhibition of CYP3A4 (unknown origin) at 3 uM; type: ADME
CYP3A4 [2] = molecular target: T1, CYP3A4; experiment: Time-dependent inhibition of CYP3A4 (unknown origin) assessed as remaining activity at 10 uM after 30 mins; type: ADME; conditions: read-out: Activity
PXR (NR1I2) = molecular target: T2, PXR (NR1I2) (Homo sapiens, UniProt O75469); experiment: Activation of human PXR at 2 uM relative to control; type: ADME; conditions: read-out: Activity
T2 sequence (O75469 whole entry): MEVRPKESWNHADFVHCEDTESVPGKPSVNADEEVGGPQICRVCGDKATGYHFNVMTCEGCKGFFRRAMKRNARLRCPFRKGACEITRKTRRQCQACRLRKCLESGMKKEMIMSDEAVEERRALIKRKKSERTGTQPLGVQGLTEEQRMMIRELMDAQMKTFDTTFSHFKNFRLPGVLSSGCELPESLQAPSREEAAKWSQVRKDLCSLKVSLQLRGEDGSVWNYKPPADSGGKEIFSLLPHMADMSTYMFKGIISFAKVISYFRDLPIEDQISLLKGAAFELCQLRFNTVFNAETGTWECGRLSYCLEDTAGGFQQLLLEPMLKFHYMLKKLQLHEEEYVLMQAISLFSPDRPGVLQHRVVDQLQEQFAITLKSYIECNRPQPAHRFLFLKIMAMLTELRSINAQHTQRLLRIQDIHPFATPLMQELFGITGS

T1 sequence (P08684 whole entry): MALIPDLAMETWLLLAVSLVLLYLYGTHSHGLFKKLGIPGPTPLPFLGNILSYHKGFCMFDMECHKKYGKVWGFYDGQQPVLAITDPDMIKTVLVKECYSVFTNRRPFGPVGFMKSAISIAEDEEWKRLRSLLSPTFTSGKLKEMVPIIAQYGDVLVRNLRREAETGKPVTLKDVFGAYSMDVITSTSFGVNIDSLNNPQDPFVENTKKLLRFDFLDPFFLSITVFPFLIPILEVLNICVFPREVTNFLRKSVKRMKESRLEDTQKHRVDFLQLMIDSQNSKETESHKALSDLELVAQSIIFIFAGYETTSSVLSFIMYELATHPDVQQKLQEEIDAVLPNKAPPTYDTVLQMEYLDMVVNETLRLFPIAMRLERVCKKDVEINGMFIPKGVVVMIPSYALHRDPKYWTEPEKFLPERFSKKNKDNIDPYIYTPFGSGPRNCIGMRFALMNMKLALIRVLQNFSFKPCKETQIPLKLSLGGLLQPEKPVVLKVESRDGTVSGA

Compound | pIC50 (SJSA-1) | inhibition at 3 µM (CYP3A4 [1]) | activity at 0.5 h, 10 µM (CYP3A4 [2]) | activity at 2 µM (PXR (NR1I2))
CC(C)(C)S(=O)(=O)C[C@H](C1CC1)N1C(=O)[C@@](C)(CC(=O)Nc2ccc(C(=O)O)cn2)C[C@H](c2cccc(Cl)c2)[C@H]1c1ccc(Cl)cc1 | 8.05 | – | – | –
CN(C(=O)C[C@@]1(C)C[C@H](c2cccc(Cl)c2)[C@@H](c2ccc(Cl)cc2)N([C@H](CS(=O)(=O)C(C)(C)C)C2CC2)C1=O)c1ccc(C(=O)O)cc1 | 6.70 | – | – | –
COc1cc(C(=O)O)ccc1NC(=O)C[C@@]1(C)C[C@H](c2cccc(Cl)c2)[C@@H](c2ccc(Cl)cc2)N([C@H](CS(=O)(=O)C(C)(C)C)C2CC2)C1=O | 8.16 | – | – | –
CC(C)(C)S(=O)(=O)C[C@H](C1CC1)N1C(=O)[C@@](C)(CC(=O)N[C@H]2CC[C@@H](C(=O)O)CC2)C[C@H](c2cccc(Cl)c2)[C@H]1c1ccc(Cl)cc1 | 7.77 | – | – | –
CC(C)(C)S(=O)(=O)C[C@H](C1CC1)N1C(=O)[C@@](C)(CC(=O)Nc2ccc(C(=O)O)cc2)C[C@H](c2cccc(Cl)c2)[C@H]1c1ccc(Cl)cc1 | 8.54 | < 10% | 78% | 0%
COc1cc(NC(=O)C[C@@]2(C)C[C@H](c3cccc(Cl)c3)[C@@H](c3ccc(Cl)cc3)N([C@H](CS(=O)(=O)C(C)(C)C)C3CC3)C2=O)ccc1C(N)=O | 7.82 | – | – | –
CC(C)(C)S(=O)(=O)C[C@H](C1CC1)N1C(=O)[C@@](C)(CC(=O)N2CCC(C(=O)O)CC2)C[C@H](c2cccc(Cl)c2)[C@H]1c1ccc(Cl)cc1 | 7.93 | – | – | –
CC(C)(C)S(=O)(=O)C[C@H](C1CC1)N1C(=O)[C@@](C)(CC(=O)NC23CCC(C(=O)O)(CC2)CC3)C[C@H](c2cccc(Cl)c2)[C@H]1c1ccc(Cl)cc1 | 8.23 | < 10% | 75% | 0%
CC(C)(C)S(=O)(=O)C[C@H](C1CC1)N1C(=O)[C@@](C)(CC(=O)Nc2ccc(C#N)cc2)C[C@H](c2cccc(Cl)c2)[C@H]1c1ccc(Cl)cc1 | 6.86 | – | – | –
CC(C)(C)S(=O)(=O)C[C@H](C1CC1)N1C(=O)[C@@](C)(CC(=O)Nc2cccc(C(=O)O)c2)C[C@H](c2cccc(Cl)c2)[C@H]1c1ccc(Cl)cc1 | 8.01 | – | – | –
COc1cc(NC(=O)C[C@@]2(C)C[C@H](c3cccc(Cl)c3)[C@@H](c3ccc(Cl)cc3)N([C@H](CS(=O)(=O)C(C)(C)C)C3CC3)C2=O)ccc1C(=O)O | 8.72 | 14% | 85% | 14%
